Results taken from patent US5547972A, “Therapeutic agents useful for treating inflammatory diseases” (The Boots Company PLC, priority 1991, dated 1996).
Where a name gives a salt, the structure may show the parent alone. Read-outs that look alike come from different tables or passages of the source.

Tests used:
[1] = tested on: Zymosan Stimulated Macrophaqes; test: Test A: Inhibition of Arachidonic Acid Release from Zymosan Stimulated Macrophages; type: cell-based, mouse (female MF1); details: read-out: Test A IC50
Protocol: Inhibition of Arachidonic Acid Release from Zymosan Stimulated Macrophaqes
Female MF1 mice (weighing 20 to 25 g) were killed using a rising concentration of CO2. The mice were laid on their backs and the abdomens wiped with 70% alcohol. The skin was pulled back, exposing the peritoneal wall. Medium A (5 ml) (see below) was injected into the peritoneal cavity of each mouse followed by approximately 1 ml of air using a 20 ml syringe and a 21 G×40 mm needle in order to form a suspension of macrophage cells. The medium and cells were then removed using a 19 G×40 mm needle. The resulting suspension was returned to a sterile beaker kept on ice. The extracts from all the mice were pooled and this pooled cell suspension was counted using a Coulter counter and adjusted to a final cell count of 1-1.3×10^6 cells/ml prior to labelling with [^3 H]-arachidonic acid. Typically five mice provided sufficient cells for each multiwell plate.
Sufficient [^3 H]-arachidonic acid in ethanol to give a final concentration of 1.6 μCi/ml (equivalent to 40 μCi/plate) was blown to dryness under nitrogen. The arachidonic acid was then resuspended in 1 or 2 ml of the cell suspension which was then mixed with the remainder of the cell suspension in a centrifuge bottle. The labelled cell suspension was then plated out into sterile plastic 96 flat-bottomed well plates (250 μl per well) and incubated overnight at 37° C. in a moist atmosphere of 5% CO2, 95% air.
The following day, non-adherent cells were removed by washing 3 times with sterile phosphate buffered saline (PBS). The adherent peritoneal macrophages were then cultured for a further 24 hours in the presence or absence of drugs, in medium B (see below) at 37° in a 5% CO2 atmosphere in order to measure the effects of drugs on the spontaneous release of arachidonic acid in the absence of stimulus. After this incubation, supernatants were removed to give media 1 and stored in sealed multi-well plates at 4° C. prior to scintillation counting. Drugs which potentiated spontaneous release of arachidonic acid (125% of controls) were deemed to be toxic at the concentration at which this phenomenon occurred. The supernatants were replaced by fresh medium C containing fresh drug and a stimulus. Three drugs were tested at six concentrations (100, 50, 20, 10, 5 and 1 μM) in replicates of four on each plate. The other wells contained controls consisting of a positive control (e.g. dexamethasone), medium (B) only and medium C only.
Incubation was then continued for a further 5 hours, whereupon the supernatants were collected to give media 2 and the adherent cells washed with PBS. The cells were then lysed with 100 μl of 0.1% TRITON® X100 in a 0.1% solution of bovine serum albumin in 0.9% saline and mechanically disrupted to give cell lysates. These supernatants (media 2) and cell lysates (Cells) were also stored in sealed multi-well plates at 4° C. prior to scintillation counting. 200 μl aliquots of media, or 100 μl aliquots of cells were counted using 2 ml of OPTIPHASE "HIGH SAFE" (Trademark of LKB) as scintillant.
The percentage of arachidonic acid released was calculated using the mean values for each group of 4 wells in the following equation. [formula] cpm=courts per minute
The value for the arachidonic acid release in the absence of stimulus (spontaneous, cpm of media 2) from cells which had been exposed to neither stimulus nor drug was subtracted from all equivalent values (cpm media 2, stimulated with or without drug) to give the net stimulated release. The percentage inhibition of arachidonic acid release caused by a drug may then be calculated using the following equation. [formula]
Compounds of formula I were tested at six concentrations (100, 50, 20, 10, 5 and 1 μM) and IC50 values calculated. Compounds with IC50 values<100 μM are considered to be active. Advantageous compounds have an IC50 value <50 μM.
Medium A (for peritoneal lavage) […]

[2] = tested on: Carrageenan-induced rat paw oedema; test: Test B: Carrageenan-induced rat paw oedema test; type: in vivo, rat (female); details: inhibition of paw oedema, 1 h before carrageenan, 3 h after injection; for inhibition in vivo at 100 mg/kg: Rattus norvegicus, po, 3 h; for Test B % inhibition at 100 mg/kg: oral
Protocol: Carrageenan-induced rat paw oedema test
Female rats, weight range 125-150 g were fasted overnight. One of the hind legs of each animal was marked with a line at the connection between the cuboid/navicular and calcaneus/talus bones. Groups of six rats were orally dosed at 10 ml/kg, in random order, with a given dose of the test compound given as a solution or suspension in 10% (w/v) aqueous acacia solution.
One hour after dosing, 0.1 ml of 1% (w/v) sterile carrageenan λ in normal saline was injected deeply into the plantar surface of the marked hind foot of each rat. The volume of the foot (up to the marked line) was measured immediately after injection using duplicate water displacement readings. Three hours after injection the foot volume was measured again and the percentage increase in foot volume relative to the initial reading was calculated.
The increase in foot volume (i.e. the degree of oedema) in drug treated animals when compared with that in the drug untreated control gave the degree of inhibition of paw oedema by the drug.
Compounds were considered to be active in this test if they produced a 20% or greater inhibition of paw oedema in at least two out of three tests after oral dosing at 100 mg/kg. Statistical significance was assessed using the Student't test for single dose studies and Dunnett's test for multiple dose studies. More advantageous compounds were active in both Tests A and B,

[3] = Mus musculus, Macrophage, 5 h, inhibition of arachidonic acid release, six concentrations (100, 50, 20, 10, 5 and 1 μM), 5 h with zymosan

Compound	IC50 [1, 3] [µM]	IC50 ([1]; inhibition of arachidonic acid release, six concentrations (100, 50, 20, 10, 5 and 1 μM), 5 h with zymosan, dihydrochloride) [µM]	inhibition in vivo at 100 mg/kg [2] [%]	Test B % inhibition at 100 mg/kg [2] [%]	IC50 ([1]; Mus musculus, Macrophage, 5 h) [µM]
CCc1nccn1CCCNC(C)c1ccc(Cl)cc1 (stereo not shown) [Example 53, N-[1-(4-Chlorophenyl)ethyl]-3-(2-ethylimidazol-1-yl)propylamine dihydrochloride]	31	–	27	–	–
Clc1ccc(C(NCCCn2ccnc2)c2ccccc2)cc1 (stereo not drawn) [Example 28, N-[α-(4-chlorophenyl)benzyl]-3-(imidazol-1-yl)propylamine]	11	–	48	–	–
Clc1ccc(CNCCCn2ccnc2)c(Cl)c1 [Example 41, N-(2,4-Dichlorobenzyl)-3-(imidazol-1-yl)propylamine]	58	–	29	–	–
Cc1ncn(CCCNCc2ccc(Cl)cc2)c1C [Example 45, N-(4-Chlorobenzyl)-3-(4,5-dimethylimidazol-1-yl)propylamine dihydrochloride]	8	–	6	–	–
CC(C)(NCCCn1ccnc1)c1ccc(Cl)cc1.Cl.Cl [68 (2), N-[1-(4-chlorophenyl)-1-methylethyl]-3-(imidazol-1-yl)propylamine dihydrochloride]	–	43	–	70	–
CC(NCCCn1ccnc1)c1ccc(Cl)c(F)c1 (stereo not shown) [Example 10, N-[1-(4-Chloro-3-fluorophenyl)ethyl]-3-(imidazol-1-yl)propylamine dihydrochloride]	40	–	49	–	–
CC(NCCCn1ccnc1)c1ccc(Cl)cc1Cl (stereo not shown) [Example 2, N-[1-(2,4-Dichlorophenyl)ethyl]-3-(imidazol-1-yl)propylamine]	39	–	37	–	–
CC(NCCCn1ccnc1)c1ccc(C(C)(C)C)cc1 (stereo not shown) [Example 19, N-[1-(4-Tert-butylphenyl)ethyl]-3-(imidazol-1-yl)propylamine]	12	–	27	–	–
CC(NCCCn1ccnc1)c1ccc(Cl)cc1 (stereo not shown) [Example 1, N-[1-(4-chlorophenyl)ethyl]-3-(imidazol-1-yl)propylamine dihydrochloride]	55	–	59	–	–
CC(NCCCn1ccnc1)c1ccc(Cl)c(Cl)c1Cl (stereo not shown) [Example 13, N-[1-(2,3,4-Trichlorophenyl)ethyl]-3-(imidazol-1-yl)propylamine dihydrochloride]	13	–	70	–	–
Cc1nccn1CCCNCc1ccc(Cl)cc1 [Example 43, N-(4-Chlorobenzyl)-3-(2-methylimidazol-1-yl)propylamine]	49	–	33	–	–
COC(=O)c1ccc(CNCCCn2ccnc2C)cc1 [Example 49, methyl 4-[3-(2-methylimidazol-1-yl)propylaminomethyl]benzoate]	45	–	0	–	–
CC(NCC(C)(C)Cn1ccnc1)c1ccc(Cl)cc1 (stereo not shown) [Example 58, N-[1-(4-chlorophenyl)ethyl]-3-(imidazol-1-yl)-2,2-dimethylpropylamine]	55	–	79	–	–
Cc1cc(Cl)ccc1CNCCCn1ccnc1 [Example 40, N-(4-Chloro-2-methylbenzyl)-3-(imidazol-1-yl)propylamine dihydrochloride]	50	–	31	–	–
Cc1cn(CCCNC(C)c2ccc(Cl)cc2)c(Cc2ccccc2)n1 (stereo not shown) [Example 32, 3-[2-benzyl-4-methylimidazol-1-yl]-N-[1-(4-chlorophenyl)ethyl]propylamine]	6	–	35	–	–
CC(NCCCn1ccnc1)c1ccc(Oc2ccccc2)cc1 (stereo not shown) [Example 16, 3-(Imidazol-1-yl)-N-[1-(4-phenoxyphenyl)ethyl]propylamine]	–	–	9	–	8
Cc1nccn1CCCNC(C)c1ccc(Cl)cc1 (stereo not shown) [Example 27, N-[1-(4-Chlorophenyl)ethyl]-3-(2-methylimidazol-1-yl)propylamine dihydrochloride]	8	–	27	–	–
CCOC(=O)C=Cc1ccc(CNCCCn2ccnc2C)cc1 [Example 51, ethyl 4-[3-(2-methylimidazol-1-yl)propylaminomethyl]cinnamate dihydrochloride]	20	–	1	–	–
Cc1nccn1CCCNC(C)c1ccc(Cl)cc1 (stereo not shown) [Example 52, N-[1-(4-chlorophenyl)ethyl]-3-(2-methylimidazol-1-yl)propylamine]	–	–	–	27	–

Now from value to molecule, other results behind:

IC50 [1, 3] [µM]	IC50 ([1]; inhibition of arachidonic acid release, six concentrations (100, 50, 20, 10, 5 and 1 μM), 5 h with zymosan, dihydrochloride) [µM]	Compound	inhibition in vivo at 100 mg/kg [2] [%]	Test B % inhibition at 100 mg/kg [2] [%]	IC50 ([1]; Mus musculus, Macrophage, 5 h) [µM]
18	–	Clc1ccc(CNCCCn2cnc(Cl)c2Cl)cc1 [Example 64, N-(4-chlorobenzyl)-3-(4,5-dichloroimidazol-1-yl)propylamine dihydrochloride]	30	–	–
11	–	Cc1ncn(CCCNC(C)(C)c2ccc(Cl)cc2)c1C [Example 70, N-[1-(4-Chlorophenyl)-1-methylethyl]-3-(4,5-dimethylimidazol-1-yl)propylamine]	21	–	–
21	–	CC(C)(NCCCCCn1ccnc1)c1ccc(Cl)cc1 [Example 62, N-[1-(4-chlorophenyl)-1-methylethyl]-5-(imidazol-1-yl)pentylamine]	42	–	–
26	–	CCc1nccn1CCCNCc1ccc(Cl)cc1 [Example 72, N-(4-Chlorobenzyl)-3-(2-ethylimidazol-1-yl)propylamine]	18	–	–
16	–	Clc1ccc(C2(NCCCn3ccnc3)CC2)cc1 [Example 82, N-[1-(4-Chlorophenyl)cycloprop-1-yl]-3-(imidazol-1-yl)propylamine dihydrochloride]	38	–	–
18	–	CC(C)c1nccn1CCCNC(C)c1ccc(Cl)cc1 (stereo not shown) [Example 65, N-[1-(4-Chlorophenyl)ethyl]-3-(2-isopropylimidazol-1-yl)propylamine]	27	–	–
62	–	CCC(c1ccc(Cl)cc1)N(C)CCCn1ccnc1 (stereo not shown) [Example 91, N-[1-(4-chlorophenyl)propyl]-3-(imidazol-1-yl)-N-methylpropylamine]	58	–	–
9	–	Cc1nccn1CCCNC(C)(C)c1ccc(Cl)cc1 [Example 60, N-[1-(4-chlorophenyl)-1-methylethyl]-3-(2-methylimidazol-1-yl)propylamine]	59	–	–
18	–	CC(NCCCn1cnc(Cl)c1Cl)c1ccc(Cl)cc1 (stereo not shown) [Example 67, N-[1-(4-Chlorophenyl)ethyl]-3-(4,5-dichloroimidazol-1-yl)propylaminesesquihydrochloride]	42	–	–
